Measured values reported in ChEMBL document CHEMBL1201862, “PubChem BioAssay data set” (2004).
Active and inactive are the calls of the source.

Experiments:
[1] = biological target: Alkaline phosphatase, placental type (Homo sapiens, UniProt P05187); experiment: human placental alkaline phosphatase inhibition – biochemical, luminescence, confirmation (AID 1512); assay type: functional
[2] = biological target: T1, Alkaline phosphatase, tissue-nonspecific isozyme (Homo sapiens, UniProt P05186); experiment: potency against alkaline phosphatase TNAP – biochemical, luminescent, dose response, SAR follow-up (AID 1056)
T1 sequence (P05186 whole entry): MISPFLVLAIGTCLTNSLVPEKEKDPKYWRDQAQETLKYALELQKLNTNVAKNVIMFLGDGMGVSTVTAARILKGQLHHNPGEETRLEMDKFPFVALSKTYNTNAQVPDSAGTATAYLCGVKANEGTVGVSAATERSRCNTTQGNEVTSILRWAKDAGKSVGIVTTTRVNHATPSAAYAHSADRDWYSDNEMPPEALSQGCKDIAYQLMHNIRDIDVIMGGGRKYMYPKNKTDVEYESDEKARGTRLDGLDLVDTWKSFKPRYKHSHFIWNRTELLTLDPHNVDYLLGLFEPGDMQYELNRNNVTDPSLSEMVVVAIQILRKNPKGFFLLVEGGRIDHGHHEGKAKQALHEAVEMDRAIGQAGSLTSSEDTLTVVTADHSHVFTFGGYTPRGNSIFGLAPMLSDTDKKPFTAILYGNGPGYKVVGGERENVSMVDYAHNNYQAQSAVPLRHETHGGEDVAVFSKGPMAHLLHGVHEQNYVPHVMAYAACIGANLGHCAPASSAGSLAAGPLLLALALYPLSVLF

Cytochrome P450 3A4 = Cytochrome P450 3A4 (Homo sapiens, UniProt P08684);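 further: CYP3A4 tested as one member of a cytochrome P450 panel screen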
Cytochrome P450 2C9 = Cytochrome P450 2C9 (Homo sapiens, UniProt P11712)
[3] = biological target: Glyceraldehyde-3-phosphate dehydrogenase (Homo sapiens, UniProt P04406)
[4] = biological target: T2, High affinity choline transporter 1 (Homo sapiens, UniProt Q9GZV3); experiment: human choline transporter blockers, potency – cell-based, 5-point CRC, membrane potential dye, dose response (AID 504840); assay type: functional
T2 sequence (Q9GZV3 whole entry): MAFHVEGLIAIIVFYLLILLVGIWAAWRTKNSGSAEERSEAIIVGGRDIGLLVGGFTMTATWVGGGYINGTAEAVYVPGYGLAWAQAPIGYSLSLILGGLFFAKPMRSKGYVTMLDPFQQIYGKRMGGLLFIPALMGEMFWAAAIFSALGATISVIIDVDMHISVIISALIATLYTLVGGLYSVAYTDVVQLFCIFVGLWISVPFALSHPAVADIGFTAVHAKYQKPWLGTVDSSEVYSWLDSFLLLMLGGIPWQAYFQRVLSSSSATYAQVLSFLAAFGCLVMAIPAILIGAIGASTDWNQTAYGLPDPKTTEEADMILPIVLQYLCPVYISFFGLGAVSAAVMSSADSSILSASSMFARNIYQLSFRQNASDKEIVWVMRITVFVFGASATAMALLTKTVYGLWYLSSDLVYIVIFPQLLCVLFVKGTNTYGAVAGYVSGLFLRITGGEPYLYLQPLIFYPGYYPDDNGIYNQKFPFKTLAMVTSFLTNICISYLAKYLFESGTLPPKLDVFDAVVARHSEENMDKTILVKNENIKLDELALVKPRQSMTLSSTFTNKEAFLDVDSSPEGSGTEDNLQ

Escherichia coli = experiment: microbe, parasite or virus in culture
[5] = biological target: T3, Microphthalmia-associated transcription factor (Homo sapiens, UniProt O75030); experiment: reducers of TRPM1 reporter luminescence, concentration series – cell-based, SK-MEL-5, cherry-picked, set 3, MITF inhibitor project, dose response (AID 493073); assay type: functional;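 further: SK-MEL-5 melanoma cells with luciferase driven by the MITF target TRPM1 promoter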
T3 sequence (O75030 whole entry): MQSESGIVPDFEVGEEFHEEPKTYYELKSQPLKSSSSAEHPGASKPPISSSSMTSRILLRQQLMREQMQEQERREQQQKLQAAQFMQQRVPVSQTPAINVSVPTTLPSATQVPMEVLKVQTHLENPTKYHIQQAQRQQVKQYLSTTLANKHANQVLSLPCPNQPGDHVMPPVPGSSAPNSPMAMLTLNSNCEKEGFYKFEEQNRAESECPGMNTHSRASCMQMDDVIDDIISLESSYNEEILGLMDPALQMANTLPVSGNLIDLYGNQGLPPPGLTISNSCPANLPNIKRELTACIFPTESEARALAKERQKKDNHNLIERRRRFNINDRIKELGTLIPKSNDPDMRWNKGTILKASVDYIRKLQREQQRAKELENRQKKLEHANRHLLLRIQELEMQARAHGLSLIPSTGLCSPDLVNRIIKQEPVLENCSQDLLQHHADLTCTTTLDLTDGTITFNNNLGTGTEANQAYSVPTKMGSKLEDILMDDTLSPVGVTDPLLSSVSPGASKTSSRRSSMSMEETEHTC

Caspase-3 = biological target: T4, Caspase-3 (Homo sapiens, UniProt P42574); assay type: functional;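 further: Dose-response selectivity test against caspase-3 for candidate inhibitors of sentrin-specific proteases (SENPs)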
T4 sequence (P42574 whole entry): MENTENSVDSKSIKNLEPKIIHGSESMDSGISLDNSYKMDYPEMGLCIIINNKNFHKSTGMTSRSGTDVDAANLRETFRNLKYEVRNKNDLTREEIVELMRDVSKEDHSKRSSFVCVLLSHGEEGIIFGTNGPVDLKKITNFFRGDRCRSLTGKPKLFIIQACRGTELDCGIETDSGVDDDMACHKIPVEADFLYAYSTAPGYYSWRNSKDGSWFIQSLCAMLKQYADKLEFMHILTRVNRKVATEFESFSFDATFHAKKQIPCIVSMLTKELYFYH

[6] = biological target: T5, Sentrin-specific protease 7 (Homo sapiens, UniProt Q9BQF6); assay type: functional;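 further: Luminescence-based dose-response confirmation of ultra-high-throughput screening hits, measuring inhibition of SENP7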
T5 sequence (Q9BQF6 whole entry): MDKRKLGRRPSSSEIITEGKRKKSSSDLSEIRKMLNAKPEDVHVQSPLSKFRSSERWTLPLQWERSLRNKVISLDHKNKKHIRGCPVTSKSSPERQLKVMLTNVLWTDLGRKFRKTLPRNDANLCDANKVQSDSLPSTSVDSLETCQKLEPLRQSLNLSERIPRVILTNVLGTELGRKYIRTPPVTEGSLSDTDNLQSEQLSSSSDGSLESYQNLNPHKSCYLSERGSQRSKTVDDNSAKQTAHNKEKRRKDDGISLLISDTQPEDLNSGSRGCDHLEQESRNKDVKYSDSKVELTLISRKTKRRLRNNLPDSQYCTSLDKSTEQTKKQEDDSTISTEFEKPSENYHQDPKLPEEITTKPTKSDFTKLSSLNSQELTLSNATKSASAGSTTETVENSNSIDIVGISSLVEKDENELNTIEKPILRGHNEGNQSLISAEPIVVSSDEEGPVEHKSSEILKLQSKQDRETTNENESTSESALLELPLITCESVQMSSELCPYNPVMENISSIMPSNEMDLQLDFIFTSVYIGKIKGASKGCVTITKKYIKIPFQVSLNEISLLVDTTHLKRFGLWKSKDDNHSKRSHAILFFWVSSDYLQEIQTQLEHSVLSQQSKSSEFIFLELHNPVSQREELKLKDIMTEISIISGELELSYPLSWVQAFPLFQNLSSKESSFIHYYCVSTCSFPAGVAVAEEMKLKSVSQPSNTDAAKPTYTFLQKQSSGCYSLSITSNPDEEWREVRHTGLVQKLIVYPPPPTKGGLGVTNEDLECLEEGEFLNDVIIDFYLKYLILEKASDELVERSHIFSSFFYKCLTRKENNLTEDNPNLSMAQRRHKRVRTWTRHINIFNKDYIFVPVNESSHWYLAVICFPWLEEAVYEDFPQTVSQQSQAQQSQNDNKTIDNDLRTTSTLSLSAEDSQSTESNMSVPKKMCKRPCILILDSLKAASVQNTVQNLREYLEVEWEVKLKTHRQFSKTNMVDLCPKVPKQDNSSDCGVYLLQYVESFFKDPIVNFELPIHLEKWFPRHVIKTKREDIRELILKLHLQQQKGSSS

[7] = biological target: T6, Sentrin-specific protease 6 (Homo sapiens, UniProt Q9GZR1); assay type: functional;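 further: Luminescence-based dose-response confirmatory assay of SENP6 inhibition, following up an ultra-high-throughput screen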
T6 sequence (Q9GZR1 whole entry): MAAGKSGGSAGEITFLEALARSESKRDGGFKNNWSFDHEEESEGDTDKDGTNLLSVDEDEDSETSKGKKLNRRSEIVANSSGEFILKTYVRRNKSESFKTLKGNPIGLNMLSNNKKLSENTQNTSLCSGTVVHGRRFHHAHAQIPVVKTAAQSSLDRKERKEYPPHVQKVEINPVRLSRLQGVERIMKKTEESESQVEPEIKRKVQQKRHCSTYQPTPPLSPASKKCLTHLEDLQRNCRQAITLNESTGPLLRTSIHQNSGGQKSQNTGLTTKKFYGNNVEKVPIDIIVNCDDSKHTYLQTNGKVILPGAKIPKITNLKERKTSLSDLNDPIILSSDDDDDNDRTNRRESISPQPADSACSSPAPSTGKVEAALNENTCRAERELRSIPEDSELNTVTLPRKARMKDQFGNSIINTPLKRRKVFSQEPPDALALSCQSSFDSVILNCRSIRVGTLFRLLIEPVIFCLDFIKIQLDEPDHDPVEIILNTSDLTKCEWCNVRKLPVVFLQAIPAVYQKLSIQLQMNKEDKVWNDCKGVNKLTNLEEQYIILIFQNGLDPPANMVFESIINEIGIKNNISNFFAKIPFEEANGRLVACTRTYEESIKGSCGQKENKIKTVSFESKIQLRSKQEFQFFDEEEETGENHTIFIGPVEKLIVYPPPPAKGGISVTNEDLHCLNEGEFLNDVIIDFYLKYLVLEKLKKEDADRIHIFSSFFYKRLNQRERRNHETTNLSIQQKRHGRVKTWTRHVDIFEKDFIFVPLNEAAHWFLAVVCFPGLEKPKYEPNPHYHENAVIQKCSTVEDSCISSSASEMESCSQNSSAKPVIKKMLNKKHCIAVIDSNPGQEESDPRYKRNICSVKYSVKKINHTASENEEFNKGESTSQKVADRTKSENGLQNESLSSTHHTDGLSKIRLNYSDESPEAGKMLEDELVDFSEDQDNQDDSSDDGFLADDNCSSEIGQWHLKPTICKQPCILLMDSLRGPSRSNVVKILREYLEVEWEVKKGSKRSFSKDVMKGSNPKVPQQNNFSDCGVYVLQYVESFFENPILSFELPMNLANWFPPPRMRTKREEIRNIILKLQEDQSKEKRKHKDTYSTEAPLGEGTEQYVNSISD

[8] = biological target: T7, Sentrin-specific protease 8 (Homo sapiens, UniProt Q96LD8); assay type: functional;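 further: luminescence read-out of SENP8 inhibition, dose-response confirmation following an ultra-high-throughput screen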
T7 sequence (Q96LD8 whole entry): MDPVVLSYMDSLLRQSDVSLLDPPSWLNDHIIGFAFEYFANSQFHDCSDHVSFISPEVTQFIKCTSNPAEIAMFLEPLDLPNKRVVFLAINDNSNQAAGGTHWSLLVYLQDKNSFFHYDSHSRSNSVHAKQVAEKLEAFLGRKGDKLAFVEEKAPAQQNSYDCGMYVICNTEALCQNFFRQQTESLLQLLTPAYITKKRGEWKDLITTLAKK

Cytochrome P450 2C19 = Cytochrome P450 2C19 (Homo sapiens, UniProt P33261); experiment: Cytochrome panel assay with activity outcomes. Panel member name: p450-cyp2c19 Compounds with AC50 equal or less than 10 uM are considered active; assay type: functional; details: read-out: AC50
Cytochrome P450 2D6 = Cytochrome P450 2D6 (Homo sapiens, UniProt P10635);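 further: CYP2D6 member of a cytochrome P450 panel assay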
Cytochrome P450 2D6, sequence (P10635 whole entry): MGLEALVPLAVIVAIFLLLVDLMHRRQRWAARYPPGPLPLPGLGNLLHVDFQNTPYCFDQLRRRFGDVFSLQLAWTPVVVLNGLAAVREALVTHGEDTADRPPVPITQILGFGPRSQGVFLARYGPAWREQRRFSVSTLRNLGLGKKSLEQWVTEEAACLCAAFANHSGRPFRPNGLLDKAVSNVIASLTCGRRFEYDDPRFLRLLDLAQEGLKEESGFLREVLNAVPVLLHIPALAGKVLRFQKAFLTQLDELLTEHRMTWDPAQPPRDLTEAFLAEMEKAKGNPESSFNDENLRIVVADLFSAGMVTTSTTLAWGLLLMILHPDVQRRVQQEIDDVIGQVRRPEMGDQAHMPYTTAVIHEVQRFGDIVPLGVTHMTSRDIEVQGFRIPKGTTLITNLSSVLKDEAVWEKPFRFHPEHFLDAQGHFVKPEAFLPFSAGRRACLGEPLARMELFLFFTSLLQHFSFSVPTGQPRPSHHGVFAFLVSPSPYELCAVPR

Cytochrome P450 3A4, sequence (P08684 whole entry): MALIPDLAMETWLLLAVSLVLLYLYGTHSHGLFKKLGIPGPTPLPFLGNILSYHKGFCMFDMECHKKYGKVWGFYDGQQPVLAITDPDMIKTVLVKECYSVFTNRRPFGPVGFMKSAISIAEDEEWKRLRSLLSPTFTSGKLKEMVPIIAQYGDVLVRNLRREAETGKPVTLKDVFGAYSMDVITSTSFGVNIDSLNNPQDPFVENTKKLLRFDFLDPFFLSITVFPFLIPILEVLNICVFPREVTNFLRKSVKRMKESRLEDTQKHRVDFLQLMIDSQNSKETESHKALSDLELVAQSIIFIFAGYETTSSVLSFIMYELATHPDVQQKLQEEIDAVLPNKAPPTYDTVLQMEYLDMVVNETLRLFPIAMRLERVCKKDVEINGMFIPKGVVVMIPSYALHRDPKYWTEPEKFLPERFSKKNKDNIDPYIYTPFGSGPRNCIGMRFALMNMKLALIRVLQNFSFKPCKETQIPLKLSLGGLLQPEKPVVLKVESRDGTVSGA
Glyceraldehyde-3-phosphate dehydrogenase, sequence (P04406 whole entry): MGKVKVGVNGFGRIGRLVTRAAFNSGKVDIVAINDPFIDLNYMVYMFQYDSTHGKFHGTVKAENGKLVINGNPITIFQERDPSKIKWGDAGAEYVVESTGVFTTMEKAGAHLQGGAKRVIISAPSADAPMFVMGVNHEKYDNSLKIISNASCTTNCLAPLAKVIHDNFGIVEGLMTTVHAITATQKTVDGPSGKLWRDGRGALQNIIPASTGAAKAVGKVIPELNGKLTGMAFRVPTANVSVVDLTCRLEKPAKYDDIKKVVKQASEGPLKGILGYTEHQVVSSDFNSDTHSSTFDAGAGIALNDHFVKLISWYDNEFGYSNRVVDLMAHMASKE
Alkaline phosphatase, placental type, sequence (P05187 whole entry): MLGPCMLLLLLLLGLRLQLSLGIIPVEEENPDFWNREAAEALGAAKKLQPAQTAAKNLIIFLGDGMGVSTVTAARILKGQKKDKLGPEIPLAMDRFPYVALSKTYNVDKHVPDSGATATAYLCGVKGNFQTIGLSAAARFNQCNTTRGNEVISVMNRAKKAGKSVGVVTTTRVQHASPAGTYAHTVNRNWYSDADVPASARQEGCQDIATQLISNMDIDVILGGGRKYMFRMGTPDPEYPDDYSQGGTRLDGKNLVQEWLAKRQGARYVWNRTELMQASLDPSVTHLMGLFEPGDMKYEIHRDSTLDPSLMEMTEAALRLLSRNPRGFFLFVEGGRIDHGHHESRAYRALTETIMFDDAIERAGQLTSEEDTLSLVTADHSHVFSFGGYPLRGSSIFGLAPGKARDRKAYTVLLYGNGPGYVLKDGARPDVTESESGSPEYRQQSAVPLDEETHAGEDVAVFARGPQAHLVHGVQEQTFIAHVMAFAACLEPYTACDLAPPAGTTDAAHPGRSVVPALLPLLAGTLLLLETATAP
Cytochrome P450 2C19, sequence (P33261 whole entry): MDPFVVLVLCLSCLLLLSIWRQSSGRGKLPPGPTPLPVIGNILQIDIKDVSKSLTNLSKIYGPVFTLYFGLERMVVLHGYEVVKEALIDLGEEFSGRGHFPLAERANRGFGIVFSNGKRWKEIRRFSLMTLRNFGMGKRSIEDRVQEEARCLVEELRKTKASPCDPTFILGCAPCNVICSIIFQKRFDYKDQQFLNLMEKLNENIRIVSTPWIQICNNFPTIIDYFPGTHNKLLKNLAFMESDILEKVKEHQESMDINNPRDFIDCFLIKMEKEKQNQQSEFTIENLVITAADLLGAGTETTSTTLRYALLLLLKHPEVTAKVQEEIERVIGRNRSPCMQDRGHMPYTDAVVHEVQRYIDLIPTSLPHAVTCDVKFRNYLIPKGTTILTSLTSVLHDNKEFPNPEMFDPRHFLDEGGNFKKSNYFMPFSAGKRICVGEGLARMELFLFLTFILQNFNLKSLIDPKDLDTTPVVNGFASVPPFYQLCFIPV
Cytochrome P450 2C9, sequence (P11712 whole entry): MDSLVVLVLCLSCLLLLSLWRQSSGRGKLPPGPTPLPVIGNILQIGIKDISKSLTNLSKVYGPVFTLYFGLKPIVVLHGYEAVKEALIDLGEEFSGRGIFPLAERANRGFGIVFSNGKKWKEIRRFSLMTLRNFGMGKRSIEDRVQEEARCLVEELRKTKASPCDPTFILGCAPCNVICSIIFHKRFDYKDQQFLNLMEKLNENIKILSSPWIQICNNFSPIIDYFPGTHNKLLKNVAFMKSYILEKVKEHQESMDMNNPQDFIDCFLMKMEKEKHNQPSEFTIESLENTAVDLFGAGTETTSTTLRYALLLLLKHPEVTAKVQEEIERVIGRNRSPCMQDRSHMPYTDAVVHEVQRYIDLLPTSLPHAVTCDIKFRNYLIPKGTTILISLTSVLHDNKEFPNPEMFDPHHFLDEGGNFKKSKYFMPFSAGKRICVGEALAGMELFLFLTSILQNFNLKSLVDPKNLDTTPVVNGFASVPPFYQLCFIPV

## CCCCN(C)C(=O)NC1(C(F)(F)F)Oc2ccccc2O1
[1]
  IC50: > 100 µM (inactive)
[2]
  IC50: > 100 µM (inactive)

## COc1ccc(NC(=O)CCNS(=O)(=O)c2ccc3c(c2)c(=O)n(C)c(=O)n3C)cc1
Cytochrome P450 3A4
  AC50: inconclusive
Cytochrome P450 2C9
  AC50: inconclusive

## Cc1cccc(C)c1OCc1nnc2c3cnn(-c4ccccc4)c3ncn12
[3]
  IC50: > 100 µM (not active)
[1]
  IC50: > 100 µM (inactive)
[2]
  IC50: > 100 µM (inactive)

## CCOC(=O)N1CCN(C(=O)CCCn2c(=S)[nH]c3ccsc3c2=O)CC1
[4]
  IC50: 12.3 µM (active)

## Nc1nc(=O)n([C@H]2C[C@H](O)[C@@H](CO)O2)cc1F
Escherichia coli
  AC50: 33.8 µM (active)

## O=C(CSc1nc2ccccc2s1)c1ccc(O)c(O)c1
[1]
  IC50: 3.42 µM (active)
[2]
  IC50: 3.03 µM (active)

## CC(C)c1ccc(NC(=O)CSc2nc(=O)n(CCCN3CCOCC3)c3c2CCC3)cc1
[4]
  IC50: 13.8 µM (active)

## NC(=O)c1c(NC(=O)C(=O)N2CCOCC2)sc2c1CCC2
Escherichia coli
  AC50: 23.9 µM (active)

## C/C=C\C(=O)N(CC)c1ccccc1C
Cytochrome P450 3A4
  AC50: inconclusive

## CCOC(=O)CCc1ccc(NC(=O)/C=C/c2ccc([N+](=O)[O-])o2)cc1
[5]
  AC50: 6.83 µM (active)

## CN(C(=O)/C=C/c1ccc([N+](=O)[O-])s1)c1ccccc1
[5]
  AC50: 9.11 µM (active)

## CC1=NN(C(N)=S)C(=O)C1N=Nc1ccccc1 (configuration not stated)
Caspase-3
  IC50: 3.7 µM (active)
[6]
  IC50: 5.13 µM (active)
[7]
  IC50: 21.6 µM (active)
[8]
  IC50: > 100 µM (inactive)

## Nc1ccccc1C(=O)NCC1(c2ccccc2)CCCC1
Escherichia coli
  AC50: 113 µM (active)

## O=S(=O)(Nc1ccccc1Br)c1cnc2ccccc2c1
[3]
  IC50: > 10 µM (inconclusive)
[2]
  IC50: > 10 µM (inactive)

## COC(=O)c1cc(C(=O)c2ccc(Cl)cc2Cl)cn1C
Cytochrome P450 3A4
  AC50: inconclusive
Cytochrome P450 2C9
  AC50: inconclusive

## Cc1cc(NS(=O)(=O)c2ccc(NC(=O)COc3c(C)cc(Br)cc3C)cc2)no1
[4]
  IC50: 13.2 µM (active)

## CCOC(=O)N1CCN(C(=O)c2ccc3nc(N4CCC(C)CC4)sc3c2)CC1
Cytochrome P450 2C19
  AC50: 11.2 µM (inconclusive)
Cytochrome P450 2D6
  AC50: 28.2 µM (inconclusive)
Cytochrome P450 3A4
  AC50: inconclusive

## O=S(=O)(Nc1cccnc1)c1cc(Cl)ccc1F
[3]
  IC50: > 100 µM (not active)
[2]
  IC50: 46.5 µM (active)

## CCOC(=O)Cn1nc(C)n(-c2ccc(C)cc2)c1=O
Cytochrome P450 2C19
  AC50: 28.2 µM (inconclusive)
Cytochrome P450 3A4
  AC50: inconclusive

## CCOC(=O)c1sc(NC(=O)c2ccc(C)s2)cc1C
Caspase-3
  IC50: 20.3 µM (active)
[6]
  IC50: 4.46 µM (active)
[7]
  IC50: > 100 µM (inactive)
[8]
  IC50: > 100 µM (inactive)
